Source: paper PMC10873626, “Acceleration of infectious disease drug discovery and development using a humanized model of drug metabolism” (Proceedings of the National Academy of Sciences of the …, 2024)
Like-named read-outs stand apart in the source and are kept apart here. Blank lines part the entries; values can stand above or below the compound they belong to.

What was measured:
[1] = mouse, hepatocytes
[2] = hepatocytes
[3] = mouse, hepatocytes; remark: listed apart in the source
CYP = settings: cited from earlier work
[4] = microsomes
[5] = Oral pharmacokinetics in 8HUM mice; settings: female, mouse, whole blood
[6] = human, 100 mg BID; ref SI 8; cited from earlier work
[7] = Oral pharmacokinetics in WT mice; settings: female, mouse, whole blood
[8] = mouse, microsomes
[9] = mouse, microsomes; remark: listed apart in the source
[10] = mouse, microsomes; remark: listed apart in the source
M. tuberculosis H37Rv = experiment: Acute M. tuberculosis infection efficacy model in 8HUM (lung CFU); type: in vivo, Mycobacterium tuberculosis; settings: 8HUM, day 9, 30 mg/kg QD

Structure (SMILES): CCOc1ccc2ccc(=O)oc2c1 [7-ethoxycoumarin]
- CLint, WT [1]: 39 mL/min/g liver
- CLint, Human [2]: 8.2 mL/min/g liver
- CLint, 8HUM [3]: 13.8 mL/min/g liver

Structure (SMILES): CC1(C)S[C@@H]2[C@H](NC(=O)[C@H](N)c3ccc(O)cc3)C(=O)N2[C@H]1C(=O)O [Amoxicillin]
- CYP interaction: Inhibitor (CYP): 2C19

Structure (SMILES): CC(C)CN(C[C@@H](O)[C@H](Cc1ccccc1)NC(=O)O[C@H]1CCOC1)S(=O)(=O)c1ccc(N)cc1 [Amprenavir]
- CYP interaction: Inhibitor (CYP): 3A4

Structure (SMILES): CO[C@H]1O[C@@H]2O[C@@]3(C)CC[C@H]4[C@H](C)CC[C@@H]([C@H]1C)[C@@]24OO3 [Artemether]
- CYP interaction: Inhibitor (CYP): 3A4

Structure (SMILES): CC[C@H]1OC(=O)[C@H](C)[C@@H](O[C@H]2C[C@@](C)(OC)[C@@H](O)[C@H](C)O2)[C@H](C)[C@@H](O[C@@H]2O[C@H](C)C[C@H](N(C)C)[C@H]2O)[C@](C)(OC)C[C@@H](C)C(=O)[C@H](C)[C@@H](O)[C@]1(C)O [Clarithromycin]
- CLint, Human [4]: 1.4 mL/min/g liver
- CYP interaction: Substrate (CYP): 3A4

Structure (SMILES): C[C@]1(COc2ccc(N3CCC(Oc4ccc(OC(F)(F)F)cc4)CC3)cc2)Cn2cc([N+](=O)[O-])nc2O1 [Delamanid]
- CL/F [5]: 1.24 L/h/kg
- apparent volume of distribution (V/F) [6]: 11.9 L/kg
- oral clearance (CL/F) [6]: 0.547 L/h/kg
- CLint, Human [4]: 0.8 mL/min/g liver
- CL/F [7]: 6.6 L/h/kg

Structure (SMILES): O=C(O)Cc1ccccc1Nc1c(Cl)cccc1Cl [Diclofenac]
- CLint, 8HUM [3]: 1.8 mL/min/g liver

Structure (SMILES): CC[C@H]1OC(=O)[C@H](C)[C@@H](O[C@H]2C[C@@](C)(OC)[C@@H](O)[C@H](C)O2)[C@H](C)[C@@H](O[C@@H]2O[C@H](C)C[C@H](N(C)C)[C@H]2O)[C@](C)(O)C[C@@H](C)C(=O)[C@H](C)[C@@H](O)[C@]1(C)O [Erythromycin]
- CLint, WT [1]: 1.3 mL/min/g liver
- CLint, Human [2]: 0.5 mL/min/g liver
- CLint, Human [4]: 3.3 mL/min/g liver
- CLint, 8HUM [3]: 0.5 mL/min/g liver

Structure (SMILES): Cc1cc(C#N)cc(C)c1Oc1nc(Nc2ccc(C#N)cc2)nc(N)c1Br [Etravirine]
- CLint, Human [4]: 1 mL/min/g liver

Structure (SMILES): CCCCN(CCCC)CCC(O)c1cc2c(Cl)cc(Cl)cc2c2cc(C(F)(F)F)ccc12 (stereo not drawn) [Halofantrine]
- CLint, Human [4]: 1.7 mL/min/g liver
- CYP interaction: Substrate (CYP): 3A4

Structure (SMILES): CC(=O)NC[C@H]1CN(c2ccc(N3CCOCC3)c(F)c2)C(=O)O1 [Linezolid]
- CLint, 8HUM [8]: 0.5 mL/min/g liver
- CLint, CypC4KO [9]: 0.5 mL/min/g liver
- CLint, 8HUM [3]: 0.5 mL/min/g liver
- CLint, WT [10]: 0.5 mL/min/g liver
- CYP interaction: Substrate (CYP): 3A4

Structure (SMILES): OC(c1cc(C(F)(F)F)nc2c(C(F)(F)F)cccc12)C1CCCCN1 (stereo not drawn) [Mefloquine]
- CLint, WT [1]: 0.5 mL/min/g liver
- CLint, CypC4KO [9]: 0.5 mL/min/g liver
- CLint, Human [2]: 0.5 mL/min/g liver
- CLint, Human [4]: 0.5 mL/min/g liver
- CLint, 8HUM [3]: 0.5 mL/min/g liver

Structure (SMILES): CO[C@H]1C[C@H](O[C@H]2[C@H](C)[C@@H](O[C@@H]3O[C@H](C)C[C@H](N(C)C)[C@H]3O)[C@@H](C)C[C@@]3(CO3)C(=O)[C@H](C)[C@@H](O)[C@@H](C)[C@@H](C)OC(=O)[C@@H]2C)O[C@@H](C)[C@@H]1O [Oleandomycin]
- CLint, CypC4KO [9]: 50 mL/min/g liver
- CLint, Human [4]: 18.5 mL/min/g liver
- CYP interaction: Inhibitor (CYP): 3A4

Structure (SMILES): CCOc1ccc(NC(C)=O)cc1 [Phenacetin]
- CLint, 8HUM [3]: 1.3 mL/min/g liver

Structure (SMILES): CC[C@@H]([C@H](C)O)n1ncn(-c2ccc(N3CCN(c4ccc(OC[C@@H]5CO[C@@](Cn6cncn6)(c6ccc(F)cc6F)C5)cc4)CC3)cc2)c1=O [Posaconazole]
- CLint, 8HUM [8]: 0.5 mL/min/g liver
- CLint, Human [4]: 0.5 mL/min/g liver
- CLint, WT [10]: 0.5 mL/min/g liver

Structure (SMILES): [H]/N=C(\N/C(=N/[H])Nc1ccc(Cl)cc1)NC(C)C [Proguanil]
- CLint, 8HUM [8]: 0.5 mL/min/g liver
- CLint, Human [4]: 0.3 mL/min/g liver
- CLint, WT [10]: 0.5 mL/min/g liver
- CYP interaction: Substrate (CYP): 2C19

Structure (SMILES): C=C[C@H]1C[N@@]2CC[C@H]1C[C@@H]2[C@@H](O)c1ccnc2ccc(OC)cc12 [Quinidine]
- CYP interaction: Inhibitor (CYP): 2D6

- CLint, Human [4]: 0.8 mL/min/g liver
Structure (SMILES): CO[C@H]1/C=C/O[C@@]2(C)Oc3c(C)c(O)c4c(O)c(c(/C=N/N5CCN(C)CC5)c(O)c4c3C2=O)NC(=O)/C(C)=C\C=C\[C@H](C)[C@H](O)[C@@H](C)[C@@H](O)[C@@H](C)[C@H](OC(C)=O)[C@@H]1C [Rifampicin]

Structure (SMILES): CO[C@H]1/C=C/O[C@@]2(C)Oc3c(C)c(O)c4c(O)c(c(/C=N/N5CCN(C6CCCC6)CC5)c(O)c4c3C2=O)NC(=O)/C(C)=C\C=C\[C@H](C)[C@H](O)[C@@H](C)[C@@H](O)[C@@H](C)[C@H](OC(C)=O)[C@@H]1C [Rifapentine]
- CYP interaction: Inducer (CYP): 2C8, 2C9

Structure (SMILES): CC(C)c1nc(CN(C)C(=O)N[C@H](C(=O)N[C@@H](Cc2ccccc2)C[C@H](O)[C@H](Cc2ccccc2)NC(=O)OCc2cncs2)C(C)C)cs1 [Ritonavir]
- CLint, Human [4]: 6.6 mL/min/g liver

Structure (SMILES): C[C@H](Cn1cnc2c(N)ncnc21)OCP(=O)(O)O [Tenofovir]
- CYP interaction: Substrate (CYP): 1A2

Structure (SMILES): COc1c(N2C[C@@H]3CCCN[C@@H]3C2)c(F)cc2c(=O)c(C(=O)O)cn(C3CC3)c12 [moxifloxacin]
- log CFU reduction in the lungs compared to the control group (M. tuberculosis H37Rv): 3.9 log CFU
